Assay results: PubChem BioAssay (NCI)
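All cell lines were grown in 96-well plates and treated with compound for 48 hours. At the TGI there is no net growth.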

Tests used:
Assay in all cases: NCI-60 cell line screen, 48 h
786-0 renal = tested on: 786-0 renal
A498 renal = tested on: A498 renal
A549 NSCLC = tested on: A549 NSCLC
ACHN renal = tested on: ACHN renal
CAKI-1 renal = tested on: CAKI-1 renal
CCRF-CEM leukemia = tested on: CCRF-CEM leukemia
COLO 205 colon = tested on: COLO 205 colon
DU-145 prostate = tested on: DU-145 prostate
EKVX NSCLC = tested on: EKVX NSCLC
HCC-2998 colon = tested on: HCC-2998 colon
HCT-116 colon = tested on: HCT-116 colon
HCT-15 colon = tested on: HCT-15 colon
HOP-62 NSCLC = tested on: HOP-62 NSCLC
HOP-92 NSCLC = tested on: HOP-92 NSCLC
HS 578T breast = tested on: HS 578T breast
HT29 colon = tested on: HT29 colon
IGROV1 ovarian = tested on: IGROV1 ovarian
K-562 leukemia = tested on: K-562 leukemia
KM12 colon = tested on: KM12 colon
LOX IMVI melanoma = tested on: LOX IMVI melanoma
M14 melanoma = tested on: M14 melanoma
MALME-3M melanoma = tested on: MALME-3M melanoma
MCF7 breast = tested on: MCF7 breast
MDA-MB-231 breast = tested on: MDA-MB-231 breast
MDA-MB-435 = tested on: MDA-MB-435
MDA-N = tested on: MDA-N
MOLT-4 leukemia = tested on: MOLT-4 leukemia
NCI-H226 lung = tested on: NCI-H226 lung
NCI-H23 lung = tested on: NCI-H23 lung
NCI-H460 lung = tested on: NCI-H460 lung
NCI-H522 lung = tested on: NCI-H522 lung
NCI/ADR-RES ovarian = tested on: NCI/ADR-RES ovarian
OVCAR-3 ovarian = tested on: OVCAR-3 ovarian
OVCAR-4 ovarian = tested on: OVCAR-4 ovarian
OVCAR-5 ovarian = tested on: OVCAR-5 ovarian
OVCAR-8 ovarian = tested on: OVCAR-8 ovarian
PC-3 prostate = tested on: PC-3 prostate
RPMI-8226 leukemia = tested on: RPMI-8226 leukemia
RXF 393 renal = tested on: RXF 393 renal
SF-268 CNS = tested on: SF-268 CNS
SF-295 CNS = tested on: SF-295 CNS
SF-539 CNS = tested on: SF-539 CNS
SK-MEL-2 melanoma = tested on: SK-MEL-2 melanoma
SK-MEL-28 melanoma = tested on: SK-MEL-28 melanoma
SK-MEL-5 melanoma = tested on: SK-MEL-5 melanoma
SK-OV-3 ovarian = tested on: SK-OV-3 ovarian
SN12C renal = tested on: SN12C renal
SNB-19 CNS = tested on: SNB-19 CNS
SNB-75 CNS = tested on: SNB-75 CNS
SR leukemia = tested on: SR leukemia
SW-620 colon = tested on: SW-620 colon
T-47D breast = tested on: T-47D breast
TK-10 renal = tested on: TK-10 renal
U251 CNS = tested on: U251 CNS
UACC-257 melanoma = tested on: UACC-257 melanoma
UACC-62 melanoma = tested on: UACC-62 melanoma
UO-31 renal = tested on: UO-31 renal
BT-549 breast = tested on: BT-549 breast
HL-60(TB) leukemia = tested on: HL-60(TB) leukemia

SMILES: CCCCCNc1nonc1N
- TGI (786-0 renal): > 100 µM
- TGI (A498 renal): > 100 µM
- TGI (A549 NSCLC): > 100 µM
- TGI (ACHN renal): > 100 µM
- TGI (CAKI-1 renal): > 100 µM
- TGI (CCRF-CEM leukemia): > 31.6 µM
- TGI (COLO 205 colon): > 100 µM
- TGI (DU-145 prostate): > 100 µM
- TGI (EKVX NSCLC): > 100 µM
- TGI (HCC-2998 colon): > 100 µM
- TGI (HCT-116 colon): > 100 µM
- TGI (HCT-15 colon): > 100 µM
- TGI (HOP-62 NSCLC): > 100 µM
- TGI (HOP-92 NSCLC): > 100 µM
- TGI (HS 578T breast): > 100 µM
- TGI (HT29 colon): > 100 µM
- TGI (IGROV1 ovarian): > 100 µM
- TGI (K-562 leukemia): > 100 µM
- TGI (KM12 colon): > 100 µM
- TGI (LOX IMVI melanoma): > 100 µM
- TGI (M14 melanoma): > 100 µM
- TGI (MALME-3M melanoma): > 100 µM
- TGI (MCF7 breast): > 100 µM
- TGI (MDA-MB-231 breast): > 100 µM
- TGI (MDA-MB-435): > 100 µM
- TGI (MDA-N): > 100 µM
- TGI (MOLT-4 leukemia): > 100 µM
- TGI (NCI-H226 lung): > 100 µM
- TGI (NCI-H23 lung): > 100 µM
- TGI (NCI-H460 lung): > 100 µM
- TGI (NCI-H522 lung): > 100 µM
- TGI (NCI/ADR-RES ovarian): > 100 µM
- TGI (OVCAR-3 ovarian): > 100 µM
- TGI (OVCAR-4 ovarian): > 100 µM
- TGI (OVCAR-5 ovarian): > 100 µM
- TGI (OVCAR-8 ovarian): > 100 µM
- TGI (PC-3 prostate): > 100 µM
- TGI (RPMI-8226 leukemia): > 100 µM
- TGI (RXF 393 renal): > 100 µM
- TGI (SF-268 CNS): > 100 µM
- TGI (SF-295 CNS): > 100 µM
- TGI (SF-539 CNS): > 100 µM
- TGI (SK-MEL-2 melanoma): > 100 µM
- TGI (SK-MEL-28 melanoma): > 100 µM
- TGI (SK-MEL-5 melanoma): > 100 µM
- TGI (SK-OV-3 ovarian): > 100 µM
- TGI (SN12C renal): > 100 µM
- TGI (SNB-19 CNS): > 100 µM
- TGI (SNB-75 CNS): > 100 µM
- TGI (SR leukemia): > 100 µM
- TGI (SW-620 colon): > 100 µM
- TGI (T-47D breast): > 100 µM
- TGI (TK-10 renal): > 100 µM
- TGI (U251 CNS): > 100 µM
- TGI (UACC-257 melanoma): > 100 µM
- TGI (UACC-62 melanoma): > 100 µM
- TGI (UO-31 renal): > 100 µM

SMILES: O=C/C(=C(/Br)I)c1ccccc1
- TGI (786-0 renal): 5.38 µM
- TGI (A498 renal): 33.9 µM
- TGI (A549 NSCLC): 56.2 µM
- TGI (ACHN renal): 9.63 µM
- TGI (BT-549 breast): 4.86 µM
- TGI (CAKI-1 renal): 4.15 µM
- TGI (CCRF-CEM leukemia): 0.798 µM
- TGI (COLO 205 colon): 14.3 µM
- TGI (DU-145 prostate): 29.2 µM
- TGI (EKVX NSCLC): 28.6 µM
- TGI (HCT-116 colon): 4.52 µM
- TGI (HCT-15 colon): 5.65 µM
- TGI (HL-60(TB) leukemia): 1.13 µM
- TGI (HOP-62 NSCLC): 29.8 µM
- TGI (HOP-92 NSCLC): 4.64 µM
- TGI (HS 578T breast): > 60 µM
- TGI (HT29 colon): 5.29 µM
- TGI (IGROV1 ovarian): 12.3 µM
- TGI (K-562 leukemia): 3.85 µM
- TGI (KM12 colon): 19 µM
- TGI (LOX IMVI melanoma): 10.9 µM
- TGI (M14 melanoma): 4.01 µM
- TGI (MALME-3M melanoma): 5.87 µM
- TGI (MCF7 breast): 2.57 µM
- TGI (MDA-MB-231 breast): 7.44 µM
- TGI (MDA-MB-435): 6.74 µM
- TGI (MDA-N): 6.86 µM
- TGI (MOLT-4 leukemia): 4.28 µM
- TGI (NCI-H226 lung): 26 µM
- TGI (NCI-H23 lung): 12.7 µM
- TGI (NCI-H460 lung): 26.4 µM
- TGI (NCI-H522 lung): 3.41 µM
- TGI (NCI/ADR-RES ovarian): 15.2 µM
- TGI (OVCAR-3 ovarian): 7.65 µM
- TGI (OVCAR-4 ovarian): 10.6 µM
- TGI (OVCAR-5 ovarian): 23.6 µM
- TGI (OVCAR-8 ovarian): 10.6 µM
- TGI (PC-3 prostate): 18.2 µM
- TGI (RXF 393 renal): 7.2 µM
- TGI (SF-268 CNS): 7.97 µM
- TGI (SF-295 CNS): 13.9 µM
- TGI (SF-539 CNS): 6.11 µM
- TGI (SK-MEL-2 melanoma): 13.5 µM
- TGI (SK-MEL-28 melanoma): 2.6 µM
- TGI (SK-MEL-5 melanoma): 13.8 µM
- TGI (SK-OV-3 ovarian): 23.2 µM
- TGI (SN12C renal): 3.64 µM
- TGI (SNB-19 CNS): 31.4 µM
- TGI (SNB-75 CNS): 18.7 µM
- TGI (SR leukemia): 2.3 µM
- TGI (SW-620 colon): 2.75 µM
- TGI (T-47D breast): 3.85 µM
- TGI (TK-10 renal): 20.2 µM
- TGI (U251 CNS): 13.7 µM
- TGI (UACC-257 melanoma): 17.8 µM
- TGI (UACC-62 melanoma): 44.4 µM
- TGI (UO-31 renal): 9.32 µM

SMILES: COc1ccc2nc3cccc([N+](=O)[O-])c3c(NCCO)c2c1
- TGI (786-0 renal): 0.0649 µM
- TGI (A498 renal): 0.117 µM
- TGI (A549 NSCLC): 0.0909 µM
- TGI (ACHN renal): 0.0504 µM
- TGI (CAKI-1 renal): 0.0706 µM
- TGI (CCRF-CEM leukemia): 2.68 µM
- TGI (COLO 205 colon): 0.0146 µM
- TGI (DU-145 prostate): 0.0619 µM
- TGI (EKVX NSCLC): 0.0648 µM
- TGI (HCC-2998 colon): 0.0395 µM
- TGI (HCT-116 colon): 0.00545 µM
- TGI (HCT-15 colon): 0.0481 µM
- TGI (HL-60(TB) leukemia): 0.0943 µM
- TGI (HOP-62 NSCLC): 0.0668 µM
- TGI (HOP-92 NSCLC): 0.0499 µM
- TGI (HS 578T breast): 0.0644 µM
- TGI (HT29 colon): 0.125 µM
- TGI (IGROV1 ovarian): 0.479 µM
- TGI (K-562 leukemia): 0.0181 µM
- TGI (KM12 colon): 0.149 µM
- TGI (LOX IMVI melanoma): 0.00494 µM
- TGI (M14 melanoma): 0.0228 µM
- TGI (MALME-3M melanoma): 0.0337 µM
- TGI (MCF7 breast): 0.296 µM
- TGI (MDA-MB-231 breast): 0.041 µM
- TGI (MDA-MB-435): 0.0186 µM
- TGI (MDA-N): 0.0234 µM
- TGI (NCI-H226 lung): 0.176 µM
- TGI (NCI-H23 lung): 0.0624 µM
- TGI (NCI-H460 lung): 0.0233 µM
- TGI (NCI-H522 lung): 0.043 µM
- TGI (NCI/ADR-RES ovarian): 0.0939 µM
- TGI (OVCAR-3 ovarian): 0.0419 µM
- TGI (OVCAR-4 ovarian): 0.153 µM
- TGI (OVCAR-5 ovarian): 0.0698 µM
- TGI (OVCAR-8 ovarian): 0.0532 µM
- TGI (PC-3 prostate): 0.0982 µM
- TGI (RPMI-8226 leukemia): 0.019 µM
- TGI (RXF 393 renal): 0.0274 µM
- TGI (SF-268 CNS): 0.111 µM
- TGI (SF-295 CNS): 1.03 µM
- TGI (SF-539 CNS): 0.052 µM
- TGI (SK-MEL-2 melanoma): 0.0368 µM
- TGI (SK-MEL-28 melanoma): 0.0626 µM
- TGI (SK-MEL-5 melanoma): 0.0614 µM
- TGI (SK-OV-3 ovarian): 0.752 µM
- TGI (SN12C renal): 0.0792 µM
- TGI (SNB-19 CNS): 0.875 µM
- TGI (SNB-75 CNS): 0.336 µM
- TGI (SW-620 colon): 0.00862 µM
- TGI (T-47D breast): 0.805 µM
- TGI (TK-10 renal): 0.142 µM
- TGI (U251 CNS): 0.122 µM
- TGI (UACC-257 melanoma): 0.0813 µM
- TGI (UACC-62 melanoma): 0.0481 µM
- TGI (UO-31 renal): 0.0504 µM
